Legend:
cleaved caspase-3 = assay: Immunohistochemistry of cleaved caspase-3 in tumor tissue; format: in vivo, Balb/c nude mice; conditions: co-administered with 131I and TKI-0266
Description: At the end of the experiment, the mice were sacrificed, and the tumors were isolated from the mouse's right flank and fixed overnight with 4% formalin. The isolated tumors were embedded in paraffin, sectioned to a 4-μm thickness, and mounted on slides. The tumor sections on the slides were de-paraffinized and stained with hematoxylin & eosin. For immunohistochemistry, NIS (Thermo Fisher Scientific; diluted at 1:200) and cleaved caspase-3 (Cell signaling; diluted at 1:200) antibodies were used.

[1] = tested on: TPO, TSHR, Tg, TTF-1 and Pax-8; assay: Western blot of thyroid-specific proteins; format: cell-based, human; conditions: 8505C-PNIS-PCMV cells
Procedure: 8505C-PNIS-PCMV cells were treated with TKI-0266 and incubated for 24 hours, and then the cell pellet was washed twice with cold phosphate-buffered saline (hereinafter referred to as PBS). An RIPA buffer (Thermo Fisher Scientific, USA) containing a protease/phosphatase cocktail inhibitor kit (Thermo Fisher Scientific) was added to the cell pellet to lyse the cells. The lysed cells were gently vortexed three times at a time interval, and centrifuged at 13000xg at 4° C. to isolate a soluble protein. The isolated protein was quantified using a BCA protein assay kit (Thermo Fisher Scientific).
Equal amounts of proteins were separated by 10% SDS-PAGE (sodium dodecyl sulfate-polyacrylamide gel electrophoresis), and then the proteins were transferred to PVDF membranes (Millipore, USA). The PVDF membrane was blocked with 3% BSA (bovine serum albumin) in TBS containing Tween-20 (TBS-T) for 1 hour, and incubated with primary antibodies in 0.5% BSA overnight at 4° C. The next day, the PVDF membrane was incubated with HRP-conjugated secondary antibodies at room temperature for 1 hour, and washed three times with TBS-T. The protein bands were visualized using ECL detection reagent (GE Healthcare Life Sciences, Italy) and the Fusion FX chemiluminescence analyzer system (Vilber lourmat, France). […]

NIS promoter = NIS promoter activity by F-luc2 bioluminescence (BLI) in dual-reporter cells; format: cell-based, human; conditions: 8505C-PNIS-PCMV cells
Description: A pNIS-FL2-TurboFP635-pCMV-Rluc recombinant vector expressing reporter genes driven by dual promoters was constructed by Cosmo Genetech, Ltd. (Republic of Korea) using a pNIS-FL2-TurboFP635 vector and a pcDNA3.1/Hygro(+) vector. Specifically, in order to screen a substance that increases the activity of NIS promoter, Firefly-luciferase2(F-luc2) and TurboFP635 were included downstream (clockwise) of the NIS promoter. In order count cells, CMV promoter and Renilla-luciferase (R-luc) were included upstream (counterclockwise) of the NIS promoter. The pNIS-FL2-TurboFP635 vector was provided from Dr. Abhijit De (ACTREC, India), and the pcDNA3.1/Hygro(+) vector was purchased from invitrogen (USA).
The 8505C cell line was transfected with the pNIS-FL2-TurboFP635-pCMV-Rluc recombinant vector using the Fu-GENE HD solution according to the protocols of the manufacturer (Promega). The ratio of the recombinant vector to the Fu-GENE HD solution was 1:4, and the transfected cells were selected using 600 μg/ml of geneticin (AG Scientific). The selected cell line that stably expresses the dual-reporter gene system is referred to herein as ‘8505C-PNIS-PCMV’ cell line.
To examine transcriptional regulation of the NIS (sodium iodide symporter) promoter, the 8505C-PNIS-PCMV cells were treated with a tyrosine kinase inhibitor (hereinafter referred to as TKI) library for 24 hours. Next, D-luciferin (150 μg/ml) was added to the cells, and the activity of NIS promoter was measured by IVIS Lumina III (Perkin-Elmer, Wellesley, Mass., USA). To normalize the NIS promoter activity to cell number, 10 μg/ml of h-coelenterazine was added to the cells, and the activity of R-luc was measured. The activity of F-luc2 was divided by the R-luc activity. The TKI library used in the experiment was obtained from the Korea Chemical Bank (www.chembank.org) in the Korea Research Institute of Chemical Technology (Republic of Korea). Among the TKI candidates, TKI-0266 was selected, purchased from Chemdiv (USA), dissolved in DMSO, and then stored at −80° C.

NIS = assay: Immunofluorescence microscopy of NIS; format: cell-based, human; conditions: anaplastic thyroid cancer cells, 24 hours
Procedure: 8505C cells were seeded in a plate at a density of 2×10^5 cells and treated with the TKI inhibitor TKI-0266. After 24 hours, the cells were fixed with 4% paraformaldehyde for 30 minutes at room temperature and washed three times with PBS for 10 minutes each wash. Next, the cells were treated with PBS containing 0.7% Triton for 10 minutes at room temperature and quenched with PBS containing 50 mM NH4Cl for 10 minutes at room temperature. The cells were washed three times with PBS for 5 minutes each wash, and then blocked with 5% BSA-containing PBS and incubated with anti-NIS primary antibody (diluted at 1:50; Abcam, UK) overnight at 4° C. The next day, the cells were washed three times with PBS for 10 minutes each wash and incubated with Alexa-Fluor 488-conjugated secondary antibody (diluted at 1:300; Thermo Fisher Scientific) 1 hour. After 1 hour, the cells were washed three times with PBS for 10 minutes for each wash, and mounted on a coverslip using a Vecta mounting medium (Vector Laboratories, USA) containing 4′,6-diamidino-2-phenylindole (DAPI). NIS staining was observed by confocal laser microscopy (Zeiss, LSM 5 exciter, Germany).

Q: For Cc1cc2c(N(C)C3CCCCC3)ncnc2s1 [TKI-0266], which “expression of cleaved caspase-3 indicating cell death (immunohistochemistry)” value (cleaved caspase-3) is on record?
A: The value was “the highest”.

Q: And the “expression of TPO, TSHR, Tg, TTF-1 and Pax8 proteins” value [1]?
A: The value was “increased”.

Q: What about the “expression of Tg, TPO, Pax8, TSHR, NIS and TTF-1 as treatment concentration increased” value ([1]; FIG. 12) of the same compound?
A: Its value is “increased”.

Q: What about the “concentration showing the highest F-luc2 activity” value (NIS promoter) of the same compound?
A: The value was 12.5 µM.

Q: What about the “BLI signal activity of F-luc2 (NIS promoter activity), increase” value (NIS promoter; 24 hours, screening) of the same compound?
A: The value was 3.19 fold.

Q: And the “BLI signal of F-luc2 as treatment concentration increased” value (NIS promoter; FIG. 7A)?
A: Its value is “increased”.

Q: What about the “activity of NIS promoter (normalized by cell viability) as treatment concentration increased” value (NIS promoter; FIG. 8) of the same compound?
A: Its value is “increased”.

Q: What about the “expression of endogenous NIS (immunofluorescence)” value (NIS) of the same compound?
A: The value was “robust”.

— US12011447B2, “Pharmaceutical composition for treating thyroid cancer comprising tyrosine kinase activity inhibitor as active ingredient” (Kyungpook National University Industry-Academic Cooperation …, priority 2017, dated 2024)
